Laboratory results as given in US4232035A, “Carbamate pesticidal compounds compositions and methods of use” (priority 1975, dated 1980).

Legend:
[1] = system: house flies (Musca domestica, L.); experiment: Fly Bait Test; format: in vivo; design: key: A: excellent control; B: partial control; C: no control; settings: 500 parts per million bait in sugar solution; twenty four hours
Description: (§1) Suspensions of the test compounds were prepared by dissolving one gram of compound in 50 milliliters of acetone in which had been dissolved 0.1 gram (10 percent of the weight of compound) of an alkylphenoxy polyethoxyethanol surfactant, as an emulsifying or dispersing agent. The resulting solution was mixed into 150 milliliters of water to give roughly 200 milliliters of a suspension containing the compound in finely divided form. The thus-prepared stock suspension contained 0.5 percent by weight of compound. The test concentrations in parts per million by weight employed in the tests described hereinbelow were obtained by appropriate dilutions of the stock suspension with water. The test procedures were as follows:
Four to six day old adult house flies (Musca domestica, L.) reared according to the specifications of the Chemical Specialties Manufacturing Association (Blue Book, McNair-Dorland Co., N.Y. 1954; pages 243-244, 261) under controlled conditions of 80°±5° F. and 50±5 percent relative humidity, were the test insects. The flies were immobilized by anesthetizing with carbon dioxide and twenty five immobilized individuals, males and females, were transferred to a cage consisting of a standard food strainer about five inches in diameter which was inverted over a wrapping-paper-covered surface. The test compounds were formulated by diluting the stock suspension with a 10 percent (by weight) sugar solution to give a suspension containing 500 parts of test compound per million parts of final formulation, by weight. Ten milliliters of the test formulation were added to a souffle cup containing a one-inch square of an absorbent cotton pad. This bait cup was introduced and centered on the blotting paper under the food strainer prior to admitting the anesthetized flies. The caged flies were allowed to feed on the bait for twenty four hours, at a temperature of 80°±5° F. and the relative humidity of 50±5 percent.

[2] = system: bean aphid (Aphis fabae Scop.); experiment: Bean Aphid Foliage Spray Test; format: in vivo; design: key: A: excellent control; B: partial control; C: no control; settings: 500 parts per million foliage spray; 24 hour holding period
Description: as §1
Adults and nymphal stages of the bean aphid (Aphis fabae Scop.) reared on potted dwarf nasturtium plants at 65°-70° F. and 50-70 percent relative humidity, constituted the test insects. For testing purposes, the number of aphids per pot was standardized to 100-150 by trimming plants containing excess aphids.
The test compounds were formulated by diluting the stock suspension with water to give a suspension containing 500 parts of test compound per million parts of final formulation.
The potted plants (one pot per compound tested) infested with 100-150 aphids, were placed on a revolving turntable and sprayed with 100-110 milliliters of test compound formulation by use of a DeVilbiss spray gun set at 40 psig. air pressure. This application, which lasted 25 seconds, was sufficient to wet the plants to run-off. As a control, 100-110 milliliters of a water-acetone-emulsifier solution containing no test compound were also sprayed on infested plants. After spraying, the pots were placed on their sides on a sheet of white standard mimeograph paper which had been previously ruled to facilitate counting. Temperature and humidity in the test room during the 24 hour holding period were 65°-70° F. and 50-70 percent, respectively. Aphids which fell onto the paper and were unable to remain standing after being uprighted were considered dead. Aphids remaining on the plants were observed closely for movement and those which were unable to move the length of the body upon stimulation by prodding were considered dead. Percent mortality was recorded for various concentration levels.

[3] = Peroral toxicity to mammals (rat); settings: in vivo, po, mortality rate of 50 percent, read-out: A.O. Rat LD50
Description: Certain of these compositions were also evaluated to determine their peroral toxicity to mammals. The animal selected for this experiment was the rat. The test results obtained are expressed in terms of the number of milligrams of compositions per kilogram of weight of the animal required to achieve a mortality rate of 50 percent (LD50).

Row | Compound | H. Fly, pesticidal activity rating [1] | Aphid, pesticidal activity rating [2] | LD50 [3] [mg/kg]
1 | CN(SSC(C)(C)C)C(=O)ON=C1SC(C)(C)C(=O)N1C | A | A | 299
2 | CN(SSC(C)(C)C)C(=O)ON=C1SCCS1 | A | A | 5.6
